Values quoted from earlier work in patent US20040266650A1, “Washing and/or cleaning article” (priority 2001, published 2004).
≈ marks a conversion by molar mass, not a printed value. Read-outs that look alike come from different tables or passages of the source. Blank lines part the entries; values can stand above or below the molecule they belong to.

Solubility (Table 2, in water at 25° C.): 788 mg/mL (≈ 6790 mM) | Solubility (Table 3, in water at 25° C.): 788 mg/mL (≈ 6790 mM)
Molecule: O=C(O)/C=C\C(=O)O [Maleic acid]

Molecule: [Cl-].[Cs+] [Cesium chloride]
Solubility (Table 2, in water at 20° C.): 1800 mg/mL

Molecule: [Cl-].[Cl-].[Zn+2] [Zinc chloride]
Solubility (Table 2, in water at 20° C.): 3680 mg/mL

Molecule: NC(N)=O [Urea]
Solubility (Table 2, in water at 20° C.): 1080 mg/mL (≈ 18000 mM)

Solubility (Table 2, in water at 25° C.): 680 mg/mL (≈ 3770 mM)
Molecule: O=C[C@H](O)[C@@H](O)[C@@H](O)[C@H](O)CO [D(+)-Galactose]

Molecule: O=C(CO)[C@@H](O)[C@H](O)[C@@H](O)CO [L-(−)-Sorbose]
Solubility (Table 2, in water at 17° C.): 550 mg/mL (≈ 3050 mM)

Molecule: [Cl-].[K+] [Potassium chloride]
Solubility (Table 2, in water at 20° C.): 340 mg/mL

Solubility (Table 2, in water at 20° C.): 1000 mg/mL | Solubility (Table 3, in water, no temperature printed (Table 2: 20° C.)): 1000 mg/mL
Molecule: Sodium polyphosphate

Molecule: O=C(O)CC(O)C(=O)O (racemic) [DL-Malic acid]
Solubility (Table 2, in water at 26° C.): 1440 mg/mL (≈ 10700 mM) | Solubility (Table 3, in water at 26° C.): 1440 mg/mL (≈ 10700 mM)
